The results in this text go back to US10787448B2, “Indolizino [3,2-C] quinoline-based fluorescent probe” (SEOUL NATIONAL UNIVERSITY R & DB FOUNDATION, priority 2015, dated 2020).

This series is described as follows: Analysis of optical characteristics (absorption, fluorescence emission, quantum yield) in solvents. Type of series: physicochemical. Conditions: for Fluorescence Emission Intensity / Peak emission wavelength λmax em(nm) / Relative fluorescence Emission Intensitynorm: H2O at 2 μM; for Peak emission wavelength λmax em(nm): excited at the longest absorption maxima; for Relative fluorescence Emission Intensitynorm: normalized fluorescence intensity; for Fluorescence quantum yield (Φ): Rhodamine 6G as a standard (Φ = 0.86 in water); for λex(nm): Table 6. As to the method:
Fluorescence emission spectra were obtained at 20° C. using a JASCO FP-6500 spectrofluorometer, a 10 mM stock solution prepared by dissolving an indolizino[3,2-c]quinoline compound in DMSO was diluted in a solvent. […] Absorption spectra were recorded at room temperature using a Perkin Elmer Lamda 20 UV/VIS spectrometer. […]
Further, the compounds (excluding Entry #51-57, etc.) of Formula 1 were subjected to spectrum analyses in various solvents, and the results are shown in Tables 6 and 7, and FIGS. 5C and 5D.

“And” between values parts separate entries of the source, which are not always exact repeats. Equal values may be shown once.

As for `Cc1ccc(-c2nc3ccccc3c3cc4c(C)cccn4c23)cc1` [compound 15], the “Fluorescence Emission Intensity” value was determined as 9.4, the “Peak emission wavelength λmax em(nm)” value came to 535.5 nm and the “Relative fluorescence Emission Intensitynorm” value stood at 0.04. Also, the “quantum yield (Φ)” value (DW, standard Rhodamine 6G) is recorded as 0.024. Besides, the “quantum yield (Φ)” value (EtOH, standard Coumarin 153) was 0.654.

In the case of `COc1cc(OC)cc(-c2nc3ccccc3c3cc4c(C)cccn4c23)c1` [compound 16], the “Fluorescence Emission Intensity” value came out at 11.7, the “Peak emission wavelength λmax em(nm)” value is listed as 535 nm and the “Relative fluorescence Emission Intensitynorm” value is listed as 0.05. Also, the “quantum yield (Φ)” value (DW, standard Rhodamine 6G) came to 0.014. Besides, the “quantum yield (Φ)” value (EtOH, standard Coumarin 153) turned out to be 0.672.

As to `COC(=O)c1c2c3ccccc3nc(-c3cccc4ccccc34)c2n2ccccc12` [compound 20], the “Fluorescence Emission Intensity” value worked out at 143.5, the “Peak emission wavelength λmax em(nm)” value is recorded as 493 nm and the “Relative fluorescence Emission Intensitynorm” value is recorded as 0.62. Further, where the note is “DW, standard Rhodamine 6G”, the “quantum yield (Φ)” value is on record as 0.367. Moreover, the “quantum yield (Φ)” value (EtOH, standard Coumarin 153) came out at 0.468.

In the case of `COc1ccc(-c2nc3ccccc3c3cc4ccc(Br)cn4c23)cc1` [compound 22], the “Fluorescence Emission Intensity” value is recorded as 89.5, the “Peak emission wavelength λmax em(nm)” value turned out to be 512 nm and the “Relative fluorescence Emission Intensitynorm” value amounted to 0.38. For the setting “DW, standard Rhodamine 6G”, the “quantum yield (Φ)” value was found to be 0.070. Moreover, under “EtOH, standard Coumarin 153”, the “quantum yield (Φ)” value was 0.440.

With `Cc1ccc(-c2nc3ccccc3c3cc4ccc(Br)cn4c23)cc1` [compound 23], the “Fluorescence Emission Intensity” value was found to be 82.4, the “Peak emission wavelength λmax em(nm)” value was determined as 518 nm and the “Relative fluorescence Emission Intensitynorm” value came to 0.35. Further, under “DW, standard Rhodamine 6G”, the “quantum yield (Φ)” value is recorded as 0.065. In addition, where the note is “EtOH, standard Coumarin 153”, the “quantum yield (Φ)” value came out at 0.106.

In the case of `COc1ccc(-c2nc3ccccc3c3cc4ccc(Br)cn4c23)cc1OC` [compound 24], the “Fluorescence Emission Intensity” value worked out at 75.1, the “Peak emission wavelength λmax em(nm)” value is recorded as 513 nm and the “Relative fluorescence Emission Intensitynorm” value was 0.32. The “quantum yield (Φ)” value (DW, standard Rhodamine 6G) is on record as 0.030. The “quantum yield (Φ)” value (EtOH, standard Coumarin 153) came to 0.063.

With `Brc1ccc2cc3c4ccccc4nc(-c4ccco4)c3n2c1` [compound 25], the “Fluorescence Emission Intensity” value is given as 13.4, the “Peak emission wavelength λmax em(nm)” value turned out to be 505.5 nm and the “Relative fluorescence Emission Intensitynorm” value was 0.06. For the setting “DW, standard Rhodamine 6G”, the “quantum yield (Φ)” value is listed as 0.009. Moreover, for the setting “EtOH, standard Coumarin 153”, the “quantum yield (Φ)” value was found to be 0.031.

As to `CCOC(=O)c1c2c3ccccc3nc(-c3ccc([N+](=O)[O-])cc3)c2n2ccccc12` [compound 26], the “Maximum absorption wavelength λmax abs(nm)” value was found to be 384 nm and the “Relative fluorescence Emission Intensitynorm” value is 0.00. Also, the “quantum yield (Φ)” value (DW, standard Rhodamine 6G) worked out at 0.000. Moreover, the “quantum yield (Φ)” value (EtOH, standard Coumarin 153) is 0.000.

`CCOC(=O)c1c2c3ccccc3nc(-c3cccc(Cl)c3)c2n2ccccc12` [compound 27]: the “Fluorescence Emission Intensity” value is recorded as 98.9, the “Peak emission wavelength λmax em(nm)” value amounted to 474 nm and the “Relative fluorescence Emission Intensitynorm” value was 0.42. The “quantum yield (Φ)” value (DW, standard Rhodamine 6G) came out at 0.073. Moreover, for the setting “EtOH, standard Coumarin 153”, the “quantum yield (Φ)” value turned out to be 0.318.

Consider `CCOC(=O)c1c2c3ccccc3nc(-c3cccc(F)c3)c2n2ccccc12` [compound 28], for which the “Absorption coefficient (cm^−1M^−1)” value was 10780 cm^−1M^−1, the “Absorption wavelength λex(nm)” value is 369 nm, the “Emission wavelength λem(nm)” value was found to be 476 nm and the “Fluorescence Emission Intensity” value came out at 211.7. Also, the “Peak emission wavelength λmax em(nm)” value was found to be 476 nm, the “Fluorescence quantum yield (Φ)” value worked out at 0.061 and the “Relative fluorescence Emission Intensitynorm” value is on record as 0.91. For the same compound, for the setting “DMF”, the “λem (nm)” value stood at 470 nm. Besides, the “λem (nm)” value (DMSO) is recorded as 472.5 nm. Also, the “λem (nm)” value (EtOH) was determined as 449.5 nm. For the same compound, the “λem (nm)” value (EtOH:CHCl3 = 1:5) is recorded as 450 nm. Besides, the “λem (nm)” value (H2O) came out at 476 nm. In addition, where the note is “MC”, the “λem (nm)” value is given as 451.5 nm.

Take `CCOC(=O)c1c2c3ccccc3nc(-c3cccc(OC)c3)c2n2ccccc12` [compound 29]: the “Fluorescence Emission Intensity” value was determined as 186.2, the “Peak emission wavelength λmax em(nm)” value is reported as 482 nm and the “Relative fluorescence Emission Intensitynorm” value was found to be 0.80. Also, the “quantum yield (Φ)” value (DW, standard Rhodamine 6G) was found to be 0.120. Further, under “EtOH, standard Coumarin 153”, the “quantum yield (Φ)” value was 0.365.

For `CCOC(=O)c1c2c3ccccc3nc(-c3ccc(OC)c(OC)c3)c2n2ccccc12` [compound 30], the “Absorption coefficient (cm^−1M^−1)” value is recorded as 10580 cm^−1M^−1, the “Absorption wavelength λex(nm)” value is on record as 369 nm, the “Emission wavelength λem(nm)” value is listed as 481 nm and the “Fluorescence Emission Intensity” value turned out to be 210.7. Moreover, the “Peak emission wavelength λmax em(nm)” value worked out at 480.5 nm, the “Fluorescence quantum yield (Φ)” value is 0.084 and the “Relative fluorescence Emission Intensitynorm” value amounted to 0.90. In addition, the “λem (nm)” value (DMF) was determined as 450 nm. Besides, the “λem (nm)” value (DMSO) stood at 452.5 nm. Further, for the setting “EtOH”, the “λem (nm)” value is 444 nm. Further, where the note is “EtOH:CHCl3 = 1:5”, the “λem (nm)” value is listed as 447.5 nm. Further, under “H2O”, the “λem (nm)” value was determined as 478.5 nm. Further, for the setting “MC”, the “λem (nm)” value came out at 448 nm.

In the case of `Cc1cccn2c1cc1c3ccccc3nc(-c3cccc4ccccc34)c12` [compound 33], the “quantum yield (Φ)” value is, setting by setting: (DW, standard Rhodamine 6G) 0.082; (EtOH, standard Coumarin 153) 0.277.

`Cc1ccc2cc3c4ccccc4nc(-c4cccc5ccccc45)c3n2c1` [compound 35]: the “quantum yield (Φ)” value is recorded as 0.073 (DW, standard Rhodamine 6G) and 0.365 (EtOH, standard Coumarin 153).

On to `COc1ccc(-c2nc3ccccc3c3c(C#N)c4ccccn4c23)cc1` [compound 39], for which the “quantum yield (Φ)” value (DW, standard Rhodamine 6G) worked out at 0.026 and the “quantum yield (Φ)” value (EtOH, standard Coumarin 153) is recorded as 0.492.

For the compound `COC(=O)c1c2c3ccccc3nc(-c3ccccn3)c2n2ccccc12` [compound 43], the “quantum yield (Φ)” value worked out at 0.014 (DW, standard Rhodamine 6G) and 0.275 (EtOH, standard Coumarin 153).

With `COc1ccc(-c2nc3ccccc3c3c(-c4ccc(C(F)(F)F)cc4)c4ccccn4c23)cc1` [compound 47], the “quantum yield (Φ)” value (DW, standard Rhodamine 6G) was determined as 0.050 and the “quantum yield (Φ)” value (EtOH, standard Coumarin 153) was determined as 0.597.

`COc1ccc(-c2nc3ccccc3c3c(-c4ccc(C(C)=O)cc4)c4ccccn4c23)cc1` [compound 48]: the “quantum yield (Φ)” value runs as follows: (DW, standard Rhodamine 6G) 0.105; (EtOH, standard Coumarin 153) 0.050.

Regarding `COc1ccc(-c2nc3ccccc3c3c(Br)c4ccccn4c23)cc1` [compound 49], the “quantum yield (Φ)” value by setting is: (DW, standard Rhodamine 6G) 0.085; (EtOH, standard Coumarin 153) 0.195.

For `COc1ccc(-c2nc3ccccc3c3c(I)c4ccccn4c23)cc1` [compound 50], the “quantum yield (Φ)” value by setting is: (DW, standard Rhodamine 6G) 0.014; (EtOH, standard Coumarin 153) 0.037.

For the compound `CCOC(=O)c1c2c3ccccc3nc(-c3ccc(OC)cc3)c2n2ccccc12` [compound 51], the “λex(nm)” value was 403 nm.

With `Cc1cccn2c1cc1c3ccccc3nc(-c3cccs3)c12` [compound 52], the “λex(nm)” value was 399 nm.

Regarding `Cc1cccn2c1cc1c3ccccc3nc(-c3ccc(Cl)o3)c12` [compound 53], the “λex(nm)” value was 422 nm.

On to `C#Cc1c2c3ccccc3nc(-c3ccc(OC)cc3)c2n2ccccc12` [compound 55], for which the “λex(nm)” value is listed as 413 nm.

For the compound `COc1ccc(-c2nc3ccccc3c3cc4ccccn4c23)cc1CN1CCOCC1` [compound 56], the “λex(nm)” value is 450 nm and 422 nm.

Consider `CCOC(=O)c1c2c3ccccc3nc(-c3ccc(OC)c(CN4CCOCC4)c3)c2n2ccccc12` [compound 57], for which the “λex(nm)” value is 401 nm.
